Laboratory results: ChEMBL document CHEMBL4014351, “Discovery of Allosteric Inhibitors Targeting the Spliceosomal RNA Helicase Brr2” (J Med Chem, 2017)
In brackets after ≈: the same amount, converted by molar mass.

Key:
[1] = physchem; details: PAMPA, pH 7.4
Description: Permeability of the compound at 10 uM at pH 7.4 after 3 hrs by PAMPA

[2] = physchem; details: 1-octanol/aqueous buffer, pH 7.4
[3] = physchem; details: aqueous buffer, pH 6.8
Description: Solubility of the compound in pH 6.8 aqueous buffer by UV absorbance method

[4] = target: Eukaryotic initiation factor 4A-III (Homo sapiens, UniProt P38919)
Description: Inhibition of MLN51-induced full length recombinant human N-terminal His6/SUMO-tagged eIF4A3 RNA dependent ATPase activity expressed in Escherichia coli BL21(DE3) using single stranded poly(U) RNA as substrate after 30 mins by ADP-Glo luminescence assay

[5] = target: Eukaryotic initiation factor 4A-I (Homo sapiens, UniProt P60842)
Sequence of Eukaryotic initiation factor 4A-I (P60842 whole entry): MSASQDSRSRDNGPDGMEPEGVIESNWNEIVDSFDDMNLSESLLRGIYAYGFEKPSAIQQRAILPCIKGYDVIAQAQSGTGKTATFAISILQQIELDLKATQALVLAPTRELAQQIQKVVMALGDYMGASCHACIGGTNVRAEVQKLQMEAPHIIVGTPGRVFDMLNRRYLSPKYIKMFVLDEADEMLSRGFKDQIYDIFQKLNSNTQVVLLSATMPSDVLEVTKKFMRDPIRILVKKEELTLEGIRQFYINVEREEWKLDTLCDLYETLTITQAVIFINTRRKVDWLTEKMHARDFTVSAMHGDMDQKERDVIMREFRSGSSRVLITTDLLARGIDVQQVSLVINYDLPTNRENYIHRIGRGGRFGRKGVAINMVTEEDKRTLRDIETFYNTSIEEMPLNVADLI
Description: Inhibition of eIF4G-induced full length recombinant human N-terminal His6/SUMO-tagged eIF4A1 RNA dependent ATPase activity expressed in Escherichia coli BL21(DE3) using single stranded poly(U) RNA as substrate after 30 mins by ADP-Glo luminescence assay

[6] = target: T1, U5 small nuclear ribonucleoprotein 200 kDa helicase (Homo sapiens, UniProt O75643); assay: biochemical
T1 sequence (O75643 whole entry): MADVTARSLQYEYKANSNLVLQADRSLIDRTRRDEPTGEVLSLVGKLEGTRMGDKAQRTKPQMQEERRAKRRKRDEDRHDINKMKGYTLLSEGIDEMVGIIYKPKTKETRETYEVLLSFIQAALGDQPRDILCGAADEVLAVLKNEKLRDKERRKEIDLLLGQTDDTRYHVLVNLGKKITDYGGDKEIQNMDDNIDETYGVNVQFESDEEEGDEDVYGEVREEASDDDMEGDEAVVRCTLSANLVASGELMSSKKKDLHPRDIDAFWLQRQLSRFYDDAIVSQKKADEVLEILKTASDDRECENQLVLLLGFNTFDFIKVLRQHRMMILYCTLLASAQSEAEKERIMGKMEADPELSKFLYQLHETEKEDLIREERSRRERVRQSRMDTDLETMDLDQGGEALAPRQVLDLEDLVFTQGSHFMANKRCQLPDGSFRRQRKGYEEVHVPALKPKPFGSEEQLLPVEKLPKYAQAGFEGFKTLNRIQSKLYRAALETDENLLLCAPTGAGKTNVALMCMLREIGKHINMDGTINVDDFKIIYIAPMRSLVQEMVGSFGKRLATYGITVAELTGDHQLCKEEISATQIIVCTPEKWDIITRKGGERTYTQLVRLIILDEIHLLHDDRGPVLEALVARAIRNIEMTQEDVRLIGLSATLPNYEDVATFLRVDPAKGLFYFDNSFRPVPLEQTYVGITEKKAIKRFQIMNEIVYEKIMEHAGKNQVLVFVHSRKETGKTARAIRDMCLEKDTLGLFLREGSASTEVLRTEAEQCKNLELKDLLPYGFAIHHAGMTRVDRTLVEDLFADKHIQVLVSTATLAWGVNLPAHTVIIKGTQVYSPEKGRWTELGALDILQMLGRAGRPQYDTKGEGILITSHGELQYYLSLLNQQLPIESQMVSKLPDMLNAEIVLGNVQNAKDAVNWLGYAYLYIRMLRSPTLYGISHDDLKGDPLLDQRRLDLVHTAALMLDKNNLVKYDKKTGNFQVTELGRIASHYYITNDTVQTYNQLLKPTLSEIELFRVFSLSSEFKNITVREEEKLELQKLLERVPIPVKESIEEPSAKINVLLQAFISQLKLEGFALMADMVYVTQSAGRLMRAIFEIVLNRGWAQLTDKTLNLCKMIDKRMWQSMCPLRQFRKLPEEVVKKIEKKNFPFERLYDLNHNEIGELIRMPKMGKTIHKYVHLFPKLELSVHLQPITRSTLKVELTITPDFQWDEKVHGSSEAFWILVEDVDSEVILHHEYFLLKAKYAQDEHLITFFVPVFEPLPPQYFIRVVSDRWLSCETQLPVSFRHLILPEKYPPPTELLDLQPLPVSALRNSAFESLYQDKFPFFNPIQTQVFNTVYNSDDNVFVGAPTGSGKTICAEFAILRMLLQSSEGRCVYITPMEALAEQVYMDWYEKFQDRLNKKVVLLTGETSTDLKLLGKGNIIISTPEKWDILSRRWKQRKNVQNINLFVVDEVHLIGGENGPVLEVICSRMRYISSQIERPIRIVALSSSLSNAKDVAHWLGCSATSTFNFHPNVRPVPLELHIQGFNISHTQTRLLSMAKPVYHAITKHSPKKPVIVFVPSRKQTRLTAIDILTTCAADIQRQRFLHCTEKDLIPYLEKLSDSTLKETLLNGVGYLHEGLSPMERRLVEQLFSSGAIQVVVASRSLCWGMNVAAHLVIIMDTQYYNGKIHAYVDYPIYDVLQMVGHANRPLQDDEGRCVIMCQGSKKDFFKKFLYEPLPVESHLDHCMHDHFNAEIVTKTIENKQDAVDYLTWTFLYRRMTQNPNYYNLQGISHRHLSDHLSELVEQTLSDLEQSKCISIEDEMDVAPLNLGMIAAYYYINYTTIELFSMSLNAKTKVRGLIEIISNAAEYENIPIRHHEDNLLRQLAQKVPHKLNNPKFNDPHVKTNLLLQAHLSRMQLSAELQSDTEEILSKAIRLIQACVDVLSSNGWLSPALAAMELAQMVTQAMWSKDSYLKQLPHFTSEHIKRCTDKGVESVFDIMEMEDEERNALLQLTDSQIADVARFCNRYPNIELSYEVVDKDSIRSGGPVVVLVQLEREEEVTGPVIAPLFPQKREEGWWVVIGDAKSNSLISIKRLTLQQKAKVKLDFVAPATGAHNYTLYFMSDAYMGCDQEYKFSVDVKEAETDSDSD
Description: Inhibition of full length recombinant human N-terminal His-tagged BRR2 RNA dependent ATPase activity expressed in baculovirus infected Sf9 cells using single stranded poly(U) RNA as substrate after 30 mins by ADP-Glo luminescence assay

[7] = target: T2, ATP-dependent RNA helicase DHX29 (Homo sapiens, UniProt Q7Z478); assay: biochemical
T2 sequence (Q7Z478 whole entry): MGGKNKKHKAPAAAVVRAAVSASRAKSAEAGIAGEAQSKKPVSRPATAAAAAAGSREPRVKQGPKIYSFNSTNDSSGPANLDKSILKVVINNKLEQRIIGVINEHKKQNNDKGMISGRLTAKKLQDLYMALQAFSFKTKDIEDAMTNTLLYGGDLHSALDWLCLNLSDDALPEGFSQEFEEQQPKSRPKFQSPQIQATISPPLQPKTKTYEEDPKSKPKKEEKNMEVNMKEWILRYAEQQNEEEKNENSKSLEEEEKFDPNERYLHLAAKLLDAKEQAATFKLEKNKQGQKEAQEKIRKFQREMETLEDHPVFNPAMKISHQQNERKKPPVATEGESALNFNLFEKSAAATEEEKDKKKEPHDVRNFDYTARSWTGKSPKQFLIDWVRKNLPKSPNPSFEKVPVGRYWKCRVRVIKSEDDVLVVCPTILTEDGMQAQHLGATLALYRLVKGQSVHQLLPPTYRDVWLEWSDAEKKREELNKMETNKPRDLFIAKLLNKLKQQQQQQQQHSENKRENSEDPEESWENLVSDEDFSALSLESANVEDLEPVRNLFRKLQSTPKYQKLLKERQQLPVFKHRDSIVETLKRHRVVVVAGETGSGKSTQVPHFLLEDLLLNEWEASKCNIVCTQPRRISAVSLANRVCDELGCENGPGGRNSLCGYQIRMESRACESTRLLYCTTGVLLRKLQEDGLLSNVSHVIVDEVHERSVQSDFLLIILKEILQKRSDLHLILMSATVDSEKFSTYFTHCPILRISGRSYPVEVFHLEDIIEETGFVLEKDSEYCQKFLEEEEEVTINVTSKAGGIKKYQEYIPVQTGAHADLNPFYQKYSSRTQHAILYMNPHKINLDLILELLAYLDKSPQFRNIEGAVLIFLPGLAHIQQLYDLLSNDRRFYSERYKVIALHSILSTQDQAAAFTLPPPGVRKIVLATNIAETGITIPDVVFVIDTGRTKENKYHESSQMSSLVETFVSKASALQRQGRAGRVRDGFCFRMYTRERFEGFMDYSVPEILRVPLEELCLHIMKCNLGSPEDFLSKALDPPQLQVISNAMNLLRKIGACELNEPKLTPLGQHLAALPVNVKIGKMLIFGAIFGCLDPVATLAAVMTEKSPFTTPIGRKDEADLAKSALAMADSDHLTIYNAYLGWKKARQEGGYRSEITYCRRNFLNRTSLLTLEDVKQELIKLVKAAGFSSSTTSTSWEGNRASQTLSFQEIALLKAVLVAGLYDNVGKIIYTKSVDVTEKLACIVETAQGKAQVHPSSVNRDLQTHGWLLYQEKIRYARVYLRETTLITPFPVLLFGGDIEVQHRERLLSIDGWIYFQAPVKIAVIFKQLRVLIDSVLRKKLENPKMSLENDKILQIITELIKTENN
Description: Inhibition of full length recombinant human N-terminal FLAG-His-tagged DHX29 RNA dependent ATPase activity expressed in baculovirus infected Sf9 insect cells using single stranded poly(U) RNA as substrate after 30 mins by ADP-Glo luminescence assay

[8] = target: T1, U5 small nuclear ribonucleoprotein 200 kDa helicase; assay: biochemical; remark: listed apart in the source

Sequence of Eukaryotic initiation factor 4A-III (P38919 whole entry): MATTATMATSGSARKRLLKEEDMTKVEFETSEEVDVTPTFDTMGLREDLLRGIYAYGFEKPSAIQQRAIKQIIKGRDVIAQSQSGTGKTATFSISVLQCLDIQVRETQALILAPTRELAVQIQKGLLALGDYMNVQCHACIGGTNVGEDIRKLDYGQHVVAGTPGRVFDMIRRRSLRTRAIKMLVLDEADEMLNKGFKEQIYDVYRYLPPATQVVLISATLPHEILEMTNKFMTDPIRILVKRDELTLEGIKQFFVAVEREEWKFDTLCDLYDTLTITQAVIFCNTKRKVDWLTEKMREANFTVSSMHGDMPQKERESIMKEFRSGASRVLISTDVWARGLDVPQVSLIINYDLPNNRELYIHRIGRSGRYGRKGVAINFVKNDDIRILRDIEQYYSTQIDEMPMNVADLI

Row | Compound | Papp at 3 h, 10 µM [1] | chromatographic logD [2] | solubility [3] | IC50 [4] | IC50 [5] | IC50 [6] | IC50 [7] | IC50 [8]
1 | Cc1cc2c(cc1N1Cc3cn(Cc4ccccc4)c(=O)cc3NC1=O)OC(c1ncccc1F)CC2 (racemic) | – | – | – | > 100 µM | > 100 µM | 5.3 µM | > 100 µM | –
2 | N=C1/C(=C/c2ccc(-c3cccc(C(=O)O)c3)o2)C(=O)N=C2SC(C3CCCCC3)=NN12 | – | – | – | 32 µM | 57 µM | 5.3 µM | 58 µM | –
3 | Cc1cc2c(cc1N1Cc3cn(Cc4ccccc4)c(=O)cc3N(C)C1=O)OC(c1ncccc1F)CC2 (racemic) | – | – | – | – | – | > 100 µM | – | –
4 | Cc1cc2c(cc1N1Cc3cn(C)c(=O)cc3NC1=O)OC(c1ncccc1F)CC2 (racemic) | – | – | – | – | – | > 100 µM | – | –

Results, then the compound that gave them:

Row | Papp at 3 h, 10 µM [1] | chromatographic logD [2] | solubility [3] | IC50 [4] | IC50 [5] | IC50 [6] | IC50 [7] | IC50 [8] | Compound
5 | 14.2 ×10⁻⁶ cm/s | 1.9 | 59 µg/mL (≈ 135 µM) | > 100 µM | > 100 µM | 0.18 µM | – | – | O=C1Nc2cc(=O)n(Cc3ccccc3)cc2CN1c1cccc(OCc2cccnc2)c1
6 | 27.3 ×10⁻⁶ cm/s | 2 | 69 µg/mL (≈ 157 µM) | – | – | – | – | – | O=C1Nc2cc(=O)n(Cc3ccccc3)cc2CN1c1cccc(OCc2ccccn2)c1
7 | 13.1 ×10⁻⁶ cm/s | 1.7 | 49 µg/mL (≈ 110 µM) | > 100 µM | > 100 µM | 0.079 µM | > 100 µM | 1.3 µM | O=C1Nc2cc(=O)n(Cc3ccccc3)cc2CN1c1cccc(OCc2cncs2)c1
